Where “and” joins values, the source holds several entries; their conditions need not be identical. Equal entries are not always repeated. Structures can show the parent of a compound that is named as a salt. Where two headings read alike, the source gives them in different places.
Legend:
DNMT1 = DNMT1 (Homo sapiens, UniProt P26358); test: DNMT1 biochemical activity, breaklight assay and/or SPA assay
[1] = system: erythroid progenitor cells (EPCs); test: Fetal hemoglobin (HbF) ELISA in day 7 erythroid progenitor cells; assay type: cell-based, human; details: Homo sapiens, Erythroid progenitor cell, HbF ELISA, day 7 EPCs, 5 days; read-out: EPC ELISA (pEC50 category) (converted);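 note: for fetal hemoglobin induction normalized to vehicle-treated cells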
Method in brief: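 Day 7 EPCs from human bone marrow CD34+ cells were plated at 1,000 cells/well in media with 3 U/mL rhEPO. They were exposed to a 22-point dilution ([…]) for 5 days at 37 °C. Lysate HbF was measured by sandwich ELISA (OD450) and normalized to DMSO control wells.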

[2] = binned activity in either the breaklight or the SPA assay
[3] = binned activity in either the breaklight or the SPA assay, read-out: DNMT1 BioChemical (pIC50 category) (converted)
[4] = breaklight assay and/or SPA assay, repeated experimental runs, read-out: average pIC50 against DNMT1 (converted)

DNMT1, sequence (P26358 whole entry, looked up): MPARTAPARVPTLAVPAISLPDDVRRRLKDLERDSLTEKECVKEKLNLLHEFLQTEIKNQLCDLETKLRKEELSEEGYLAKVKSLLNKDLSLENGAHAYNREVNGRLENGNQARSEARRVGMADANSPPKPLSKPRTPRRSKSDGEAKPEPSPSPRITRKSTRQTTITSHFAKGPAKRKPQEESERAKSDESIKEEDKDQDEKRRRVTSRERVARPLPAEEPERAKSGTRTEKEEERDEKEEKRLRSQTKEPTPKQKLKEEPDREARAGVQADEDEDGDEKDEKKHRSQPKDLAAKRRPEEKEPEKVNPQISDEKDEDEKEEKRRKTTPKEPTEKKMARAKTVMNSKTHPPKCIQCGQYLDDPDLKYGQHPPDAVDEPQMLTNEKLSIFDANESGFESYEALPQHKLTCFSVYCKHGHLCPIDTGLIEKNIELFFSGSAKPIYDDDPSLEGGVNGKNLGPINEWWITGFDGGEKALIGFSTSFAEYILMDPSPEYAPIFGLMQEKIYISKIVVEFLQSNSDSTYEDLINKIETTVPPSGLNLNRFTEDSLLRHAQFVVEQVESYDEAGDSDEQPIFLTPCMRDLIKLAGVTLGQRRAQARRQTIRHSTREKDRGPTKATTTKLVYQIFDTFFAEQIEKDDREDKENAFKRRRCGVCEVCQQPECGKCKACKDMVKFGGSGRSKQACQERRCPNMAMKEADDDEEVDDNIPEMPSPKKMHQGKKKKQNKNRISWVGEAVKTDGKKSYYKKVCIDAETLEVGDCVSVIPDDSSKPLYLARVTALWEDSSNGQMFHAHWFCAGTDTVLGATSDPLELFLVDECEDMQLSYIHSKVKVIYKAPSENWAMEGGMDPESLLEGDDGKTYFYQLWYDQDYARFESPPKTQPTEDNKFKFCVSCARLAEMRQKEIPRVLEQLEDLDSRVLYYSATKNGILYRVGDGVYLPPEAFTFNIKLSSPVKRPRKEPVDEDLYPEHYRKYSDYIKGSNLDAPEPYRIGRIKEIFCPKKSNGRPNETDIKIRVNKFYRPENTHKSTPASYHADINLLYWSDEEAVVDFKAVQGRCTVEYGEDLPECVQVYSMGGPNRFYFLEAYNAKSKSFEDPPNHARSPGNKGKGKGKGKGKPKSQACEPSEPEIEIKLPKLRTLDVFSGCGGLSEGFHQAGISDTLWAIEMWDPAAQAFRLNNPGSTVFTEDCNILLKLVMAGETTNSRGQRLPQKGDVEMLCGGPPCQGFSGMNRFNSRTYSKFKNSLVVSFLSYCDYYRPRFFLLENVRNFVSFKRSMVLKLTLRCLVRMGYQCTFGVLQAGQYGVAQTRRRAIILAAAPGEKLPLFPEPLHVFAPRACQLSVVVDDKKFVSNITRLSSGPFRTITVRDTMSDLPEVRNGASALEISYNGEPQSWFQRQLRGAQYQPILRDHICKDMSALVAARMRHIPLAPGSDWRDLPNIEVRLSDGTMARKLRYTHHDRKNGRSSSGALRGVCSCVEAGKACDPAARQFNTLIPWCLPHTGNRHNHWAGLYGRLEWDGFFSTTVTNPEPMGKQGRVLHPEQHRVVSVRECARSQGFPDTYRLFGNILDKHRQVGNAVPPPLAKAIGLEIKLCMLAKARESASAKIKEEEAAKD

Structure (SMILES) | DNMT1 BioChemical (pIC50 category) (DNMT1; [2]) | EC50 [1] [µM] | IC50 (DNMT1; [3]) [µM] | IC50 (DNMT1; [4])
CCc1c(C#N)c(SC(C(N)=O)c2ccccc2)nc(N2CCC(NCC(=O)O)CC2)c1C#N (centres unmarked) [Example 497, 2-((1-(6-((2-amino-2-oxo-1-phenylethyl)thio)-3,5-dicyano-4-ethylpyridin-2-yl)piperidin-4-yl)amino)acetic acid] | D (Category D: ≥6.5) | 1 to 31.6 |  | 
CCc1c(C#N)c(SC(C(N)=O)c2cccc(C(=O)c3ccccc3)c2)nc(N2CCCN(CCO)CC2)c1C#N (centres unmarked) [Example 244, 2-(3-Benzoylphenyl)-2-((3,5-dicyano-4-ethyl-6-(4-(2-hydroxyethyl)-1,4-diazepan-1-yl)pyridin-2-yl)thio)acetamide] |  | < 0.316 | 0.316 to 1 | 
CCc1c(C#N)c(SCc2ccc(CO)cc2)nc(N2CCCN(C)CC2)c1C#N [Example 85, 4-Ethyl-2-((4-(hydroxymethyl)benzyl)thio)-6-(4-methyl-1,4-diazepan-1-yl)pyridine-3,5-dicarbonitrile] |  | 1 to 31.6 | 0.316 to 1 | 0.316 to 1 µM
N#Cc1c(SC(C(N)=O)c2ccccc2)nc(N2CCC[C@H](O)C2)c(C#N)c1C1CC1 (stereo partly drawn) [Example 33, 2-(3,5-dicyano-4-cyclopropyl-6-((S)-3-hydroxypiperidin-1-yl)pyridin-2-ylthio)-2-phenylacetamide] |  | 0.316 to 1 | 0.316 to 1 | 
N#Cc1c(SC(C(N)=O)c2ccccc2)nc(N2CCN(CCCN)CC2)c(C#N)c1C1CC1 (centres unmarked) [Example 124, 2-((6-(4-(3-Aminopropyl)piperazin-1-yl)-3,5-dicyano-4-cyclopropylpyridin-2-yl)thio)-2-phenylacetamide] |  | 1 to 31.6 | 0.316 to 1 | 
CCc1c(C#N)c(SC(C(N)=O)c2ccccc2)nc(N2CCN(CCO)C(=O)C2)c1C#N (centres unmarked) [Example 504, 2-((3,5-dicyano-4-ethyl-6-(4-(2-hydroxyethyl)-3-oxopiperazin-1-yl)pyridin-2-yl)thio)-2-phenylacetamide] | D (Category D: ≥6.5) | 1 to 31.6 |  | 
CN(CC(=O)N(CCO)CCO)c1nc(SC(C(N)=O)c2ccccc2)c(C#N)c(C2CC2)c1C#N (centres unmarked) [Example 641, 2-((6-((2-amino-2-oxo-1-phenylethyl)thio)-3,5-dicyano-4-cyclopropylpyridin-2-yl)(methyl)amino)-N,N-bis(2-hydroxyethyl)acetamide] | D (Category D: ≥6.5) | 1 to 31.6 |  | 
CCc1c(C#N)c(SCc2ccc(CN3CCCC3=O)cc2)nc(N2CCCN(C)CC2)c1C#N [Example 269, 4-Ethyl-2-(4-methyl-1,4-diazepan-1-yl)-6-((4-((2-oxopyrrolidin-1-yl)methyl)benzyl)thio)pyridine-3,5-dicarbonitrile] |  | 1 to 31.6 | 1 to 31.6 | 
CCc1c(C#N)c(SCc2ccc(S(N)(=O)=O)cc2)nc(N2CCC(N)CC2)c1C#N [Example 345, 4-(((6-(4-Aminopiperidin-1-yl)-3,5-dicyano-4-ethylpyridin-2-yl)thio)methyl) benzenesulfonamide] | D (Category D: ≥6.5) | 1 to 31.6 |  | 
CCc1c(C#N)c(SC(C(N)=O)c2ccccc2)nc(N2CC[C@H](N)C2)c1C#N (stereo partly drawn) [Example 528, 2-((6-((S)-3-aminopyrrolidin-1-yl)-3,5-dicyano-4-ethylpyridin-2-yl)thio)-2-phenylacetamide] | D (Category D: ≥6.5) | < 0.316 |  | 
N#Cc1c(SC(C(N)=O)c2ccccc2)nc(N2CC(O)C2)c(C#N)c1C1CC1 (centres unmarked) [Example 387, 2-((3,5-Dicyano-4-cyclopropyl-6-(13-hydroxyazetidin-1-yl)pyridin-2-yl)thio)-2-phenylacetamide] | D (Category D: ≥6.5) | 1 to 31.6 |  | 
CCc1c(C#N)c(SCc2ccc(CS(C)(=O)=O)cc2)nc(N2CCCN(C)CC2)c1C#N [Example 403, 4-Ethyl-2-(4-methyl-1,4-diazepan-1-yl)-6-(4-(methylsulfonylmethyl)benzylthio)pyridine-3,5-dicarbonitrile] |  | 0.316 to 1 | 0.316 to 1 | 
CCc1c(C#N)c(SC(C(N)=O)c2ccccc2)nc(N2CCC(N(C)CC(C)(C)OC)CC2)c1C#N (centres unmarked) [Example 492, 2-((3,5-dicyano-4-ethyl-6-(4-((2-methoxy-2-methylpropyl)(methyl)amino)piperidin-1-yl)pyridin-2-yl)thio)-2-phenylacetamide] | D (Category D: ≥6.5) | < 0.316 |  | 
CCc1c(C#N)c(SC(C(N)=O)c2ccccc2)nc(N2CCCN(CC(=O)OC)CC2)c1C#N (centres unmarked) [Example 108, Methyl 2-[4-(6-{[carbamoyl(phenyl)methyl]sulfanyl}-3,5-dicyano-4-ethylpyridin-2-yl)-1,4-diazepan-1-yl]acetate] |  | 0.316 to 1 | 1 to 31.6 | ≥ 1 µM
CCc1c(C#N)c(SC(C(N)=O)c2ccccc2)nc(N2CCC(CN3CCN(C)CC3)CC2)c1C#N (centres unmarked) [Example 469, 2-((3,5-dicyano-4-ethyl-6-(4-((4-methylpiperazin-1-yl)methyl)piperidin-1-yl)pyridin-2-yl)thio)-2-phenylacetamide] | D (Category D: ≥6.5) | < 0.316 |  | 
CCc1c(C#N)c(SCc2ccc(N(C)S(=O)(=O)C(F)F)cc2)nc(N2CCCN(C)CC2)c1C#N [Example 602, N-(4-(((3,5-dicyano-4-ethyl-6-(4-methyl-1,4-diazepan-1-yl)pyridin-2-yl)thio)methyl)phenyl)-1,1-difluoro-N-methylmethanesulfonamide] |  | < 0.316 | 0.316 to 1 | 0.316 to 1 µM and 0.501 µM
CCc1c(C#N)c(SC(C(N)=O)c2ccc(C(F)(F)F)cc2)nc(N2CCC(NCC(C)(C)C)CC2)c1C#N (centres unmarked) [Example 532, 2-((3,5-dicyano-4-ethyl-6-(4-(neopentylamino)piperidin-1-yl)pyridin-2-yl)thio)-2-(4-(trifluoromethyl)phenyl)acetamide] | D (Category D: ≥6.5) | < 0.316 |  | 
CCc1c(C#N)c(SC(C(N)=O)c2ccccc2)nc(N2C[C@@H](O)[C@@H](O)C2)c1C#N (stereo partly drawn) [Example 219, 2-((3,5-Dicyano-6-((3S,4R)-3,4-dihydroxypyrrolidin-1-yl)-4-ethylpyridin-2-yl)thio)-2-phenylacetamide] |  | 1 to 31.6 | 0.316 to 1 | 
CCc1c(C#N)c(SCc2ccc(S(N)(=O)=O)cc2)nc(N2CCC(NC(=O)CN)CC2)c1C#N [Example 339, 2-Amino-N-(1-(3,5-dicyano-4-ethyl-6-((4-sulfamoylbenzyl)thio)pyridin-2-yl)piperidin-4-yl)acetamide hydrochloride] | D (Category D: ≥6.5) | 1 to 31.6 |  | 
CCc1c(C#N)c(SCc2ccc(N(C)S(C)(=O)=O)cc2)nc(N(C)CCN2CCCCC2)c1C#N [Example 577, N-(4-(((3,5-dicyano-4-ethyl-6-(methyl(2-(piperidin-1-yl)ethyl)amino)pyridin-2-yl)thio)methyl)phenyl)-N-methylmethanesulfonamide] | D (Category D: ≥6.5) | < 0.316 |  | 
CCc1c(C#N)c(SC(C(N)=O)c2ccccc2)nc(N(C)CC(C)(O)C(N)=O)c1C#N (centres unmarked) [Example 261, 3-((6-((2-Amino-2-oxo-1-phenylethyl)thio)-3,5-dicyano-4-ethylpyridin-2-yl)(methyl)amino)-2-hydroxy-2-methylpropanamide] |  | 1 to 31.6 | 0.316 to 1 | 
CCc1c(C#N)c(SC(C(N)=O)c2ccccc2)nc(N(C)CCOC(=O)[C@@H](N)C(C)C)c1C#N (some centres unmarked) [Example 275] |  | 0.316 to 1 | 0.316 to 1 | 

— US10975056B2 (GlaxoSmithKline Intellectual Property Development Limited, priority 2016, dated 2021)
